Experimental data reported in patent US12258335B1, “Matrix metalloproteinase (MMP) inhibitors and methods of use thereof” (Foresee Pharmaceuticals USA, Inc., priority 2018, dated 2025).

Legend:
[1] = tested on: bleomycin (BLM) induced unilateral lung fibrosis model in Sprague Dawley (SD) rats; assay: Bleomycin-induced SD rat unilateral lung fibrosis model for IPF; format: in vivo
Experimental: The purpose of this study was to evaluate the therapeutic effect of FC-4 on bleomycin (BLM) induced unilateral lung fibrosis model in Sprague Dawley (SD) rats. Male SD rats (n=50) were randomly divided into the following groups: Sham group (n=10), Model group (n=10), FC-4 administered at 10 mg/kg/day group (n=10), FC-4 administered at 30 mg/kg/day group (n=10), and FC-4 administered at 100 mg/kg/day group (n=10). All test drugs were delivered orally starting from day 8 of modeling for 14 days. Saline solution was taken for sham and model groups once a day, and FC-4 twice a day for drug treatment groups. Rats were anesthetized and the trachea was exposed. Saline was administrated via direct intra-trachea injection in the sham group, and the other groups' animals received a BLM injection at a dose of 3 mg/kg in volume of 1.0 ml/kg. All animals were processed using a non invasive lung function test with EMMS Whole Body Plethysmography system at pre-modeling, and at days 3, 7, 11, 14, 18 and 21 of modeling. One day after the last drug delivery, the left lung of all animals was perfused with 10% formalin, and processed for pathology analysis.
Animals: Species and quality level: SD rats, SPF grade. Gender and number: male, 93. Purchasing body weight range: 260-280 g. […]

[2] = biological target: T1, recombinant human MMP-12 catalytic domain (Homo sapiens, UniProt P39900); assay: MMP-12 inhibitory assay (fluorogenic MMP substrate cleavage); format: biochemical; details: readout at 30 minutes
T1 construct: recombinant human MMP-12 catalytic domain; purchased Enzo BM1L-SE138
Experimental: The inhibitory effect of compounds on the rate of cleaving fluorogenic MMP substrate (Enzo, BML-P128) by recombinant human MMP-12 catalytic domain (Enzo, BM1L-SE138) was carried out by methods known in the art. Briefly, to each well of a 96-well black opaque plate, all the reagents were sequentially added by pipetting, and the final reaction contained 4 nM of recombinant human MMP-12 catalytic domain, 4 μM of fluorogenic MMP substrate, and various concentrations (0.15 nM to 10,000 nM) of tested compound dilutions in HEPES buffer (pH 7.5) containing 10 mM of CaCl2), 0.01% Brij® 35 (polyoxyethylene (23) lauryl ether), and 0.1 mg/ml of BSA.
The enzyme and compounds were pre-incubated on a shaker to mix in wells. After an hour of mixing, fluorogenic substrate was added to each well. Reaction without enzyme was used as a blank control in the plate. The plate was then fed into a plate reader to measure fluorescence intensity at Excitation/Emission wavelengths of 340 nm/440 nm every 10 mins for at least 1 hour at 37° C. The IC50 of each compound in MMP-12 inhibition was determined by using a readout obtained at time point 30 minutes.

T1 sequence (P39900 106-263 limits assumed): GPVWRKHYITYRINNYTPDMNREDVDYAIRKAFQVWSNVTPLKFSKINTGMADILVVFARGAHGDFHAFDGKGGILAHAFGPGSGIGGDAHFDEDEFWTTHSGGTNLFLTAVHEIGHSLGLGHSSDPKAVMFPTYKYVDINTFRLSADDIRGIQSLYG

Q: For Cc1cc(COc2ccc(Sc3ccoc3C3NC(=O)NC3=O)cc2)ccn1 (stereo not drawn) [FC-4], which “Share of the Ashcraft score that was score 3” value ([1]; all drug treatment groups) is on record?
A: The value was ~80%.

Q: And the “Physical and behavior abnormality” value ([1]; all tested rats during the experiment)?
A: Its value is “no obviously physical and behavior abnormality change”.

Q: Which IC50 [2] does the source give for Cc1cccc(COc2ccc(Sc3ccoc3C3NC(=O)NC3=O)cc2)[n+]1[O-] (stereo not drawn) [FC-5] here?
A: The IC50 was > 1000 nM.

Q: Cc1cc(CCc2ccc(Sc3ccoc3C3NC(=O)NC3=O)cc2)ccn1 (stereo not drawn) [FC-30] was tested. Which IC50 [2] did it give?
A: The IC50 was 10 to 100 nM.

Q: Which IC50 [2] does the source give for Cc1cc(CNc2ccc(Sc3ccoc3C3NC(=O)NC3=O)cc2)ccn1 (stereo not drawn) [FC-31] here?
A: The IC50 was 10 to 100 nM.

Q: Cc1cc(NCc2ccc(Sc3ccoc3C3NC(=O)NC3=O)cc2)ccn1 (stereo not drawn) [FC-34] was tested. Which IC50 [2] did it give?
A: The IC50 was 100 to 1000 nM.
